The values below come from ChEMBL document CHEMBL5042496, “An unanticipated discovery towards novel naphthalimide corbelled aminothiazoximes as potential anti-MRSA agents and allosteric modulators for PBP2a” (Eur J Med Chem, 2022).

Molecules are shown by their SMILES. Converted amounts (≈) assume the structure as drawn.

One data set deals with Enterococcus faecium. Description: Antibacterial activity against Enterococcus faecium assessed as bacterial growth inhibition measured after 24 hrs by two fold serial dilution technique. In kind it is functional.
Another data set deals with Klebsiella pneumoniae. Kind of data set: Antibacterial activity against Klebsiella pneumoniae assessed as bacterial growth inhibition measured after 24 hrs by two fold serial dilution technique. In kind it is functional.
In data set [1] the test system is Staphylococcus aureus. Description: Antibacterial activity against methicillin-resistant Staphylococcus aureus assessed as bacterial growth inhibition measured after 24 hrs by two fold serial dilution technique. The format is functional.
Data set [2] concerns Escherichia coli. Description: Antibacterial activity against Escherichia coli ATCC 25922 assessed as bacterial growth inhibition measured after 24 hrs by two fold serial dilution technique. In kind it is functional.
Data set [3] relates to Staphylococcus aureus. Description: Antibacterial activity against Staphylococcus aureus ATCC 25923 assessed as bacterial growth inhibition measured after 24 hrs by two fold serial dilution technique. In kind it is functional.
Data set [4] has as its system Staphylococcus aureus. Description: Antibacterial activity against Staphylococcus aureus ATCC 29213 assessed as bacterial growth inhibition measured after 24 hrs by two fold serial dilution technique. In kind it is functional.
The subject of another data set is Acinetobacter baumannii. Kind of data set: Antibacterial activity against Acinetobacter baumannii assessed as bacterial growth inhibition measured after 24 hrs by two fold serial dilution technique. In kind it is functional.
In data set [5] the test system is Escherichia coli. Description: Antibacterial activity against Escherichia coli assessed as bacterial growth inhibition measured after 24 hrs by two fold serial dilution technique. In kind it is functional.
Data set [6] relates to Pseudomonas aeruginosa. Description: Antibacterial activity against Pseudomonas aeruginosa assessed as bacterial growth inhibition measured after 24 hrs by two fold serial dilution technique. In kind it is functional.
Data set [7] has as its system Pseudomonas aeruginosa. Kind of data set: Antibacterial activity against Pseudomonas aeruginosa ATCC 27853 assessed as bacterial growth inhibition measured after 24 hrs by two fold serial dilution technique. In kind it is functional.
The test system of data set [8] is Staphylococcus aureus. Description: Antibacterial activity against Staphylococcus aureus assessed as bacterial growth inhibition measured after 24 hrs by two fold serial dilution technique. In kind it is functional.
A short description of data set [9]: Hemolytic activity in human RBC assessed as hemolysis incubated for 1 hr. The format is toxicity, cell-based, Erythrocyte. To be noted: red blood cells.

In the case of `CO/N=C(\C(=O)N1CCN(c2ccc3c4c(cccc24)C(=O)N(CC#N)C3=O)CC1)c1csc(N)n1`, the MIC came out at 8 µg/mL (≈ 15.9 µM) with Enterococcus faecium; 16 µg/mL (≈ 31.8 µM) in the data set with Klebsiella pneumoniae; 16 µg/mL (≈ 31.8 µM) in the data set on Staphylococcus aureus [1]; 64 µg/mL (≈ 127 µM) in the data set on Escherichia coli [2]; 128 µg/mL (≈ 254 µM) in the data set on Staphylococcus aureus [3]; 32 µg/mL (≈ 63.5 µM) with Staphylococcus aureus [4]. Moreover, the MIC in the data set with Acinetobacter baumannii amounted to 8 µg/mL (≈ 15.9 µM); in the data set on Escherichia coli [5], 128 µg/mL (≈ 254 µM); in the data set with Pseudomonas aeruginosa [6], 256 µg/mL (≈ 508 µM); in the data set on Pseudomonas aeruginosa [7], 64 µg/mL (≈ 127 µM); in the data set on Staphylococcus aureus [8] it was 64 µg/mL (≈ 127 µM). In addition, in data set [9], the HC50 at 1 h came out at 299 µg/mL.
As to `CCON1C(=O)c2cccc3c(N4CCN(C(=O)/C(=N\OC)c5csc(N)n5)CC4)ccc(c23)C1=O`, the MIC with Enterococcus faecium was 8 µg/mL (≈ 15.7 µM); in the data set on Klebsiella pneumoniae it was 16 µg/mL (≈ 31.5 µM); in the data set on Staphylococcus aureus [1], 8 µg/mL (≈ 15.7 µM); with Escherichia coli [2] it was 64 µg/mL (≈ 126 µM); in the data set with Staphylococcus aureus [3], 64 µg/mL (≈ 126 µM); in the data set on Staphylococcus aureus [4] it was 32 µg/mL (≈ 62.9 µM). For the same compound, the minimal inhibitory concentration (MIC) in the data set with Acinetobacter baumannii was determined as 2 µg/mL (≈ 3.93 µM); in the data set on Escherichia coli [5], 64 µg/mL (≈ 126 µM); with Pseudomonas aeruginosa [6], 64 µg/mL (≈ 126 µM); in the data set on Pseudomonas aeruginosa [7], 32 µg/mL (≈ 62.9 µM); in the data set on Staphylococcus aureus [8], 128 µg/mL (≈ 252 µM). Also, the HC50 at 1 h in [9] stood at 509 µg/mL.
In the case of `CO/N=C(\C(=O)N1CCN(c2ccc3c4c(cccc24)C(=O)N(C2CCCC2)C3=O)CC1)c1csc(N)n1`, the minimum inhibitory concentration (MIC) in the data set with Enterococcus faecium turned out to be 16 µg/mL (≈ 30 µM); with Klebsiella pneumoniae, 32 µg/mL (≈ 60.1 µM); in the data set with Staphylococcus aureus [1], 8 µg/mL (≈ 15 µM); in the data set on Escherichia coli [2] it was 64 µg/mL (≈ 120 µM); in the data set with Staphylococcus aureus [3] it was 64 µg/mL (≈ 120 µM); with Staphylococcus aureus [4], 32 µg/mL (≈ 60.1 µM). In addition, the minimum inhibitory concentration (MIC) in the data set with Acinetobacter baumannii is 8 µg/mL (≈ 15 µM); with Escherichia coli [5], 64 µg/mL (≈ 120 µM); with Pseudomonas aeruginosa [6] it was 64 µg/mL (≈ 120 µM); with Pseudomonas aeruginosa [7] it was 32 µg/mL (≈ 60.1 µM); in the data set with Staphylococcus aureus [8] it was 64 µg/mL (≈ 120 µM). The HC50 at 1 h in data set [9] is 278 µg/mL.
`CO/N=C(\C(=O)N1CCN(c2ccc3c4c(cccc24)C(=O)N(c2ncc(C)s2)C3=O)CC1)c1csc(N)n1`: the MIC with Enterococcus faecium was 64 µg/mL (≈ 114 µM); in the data set on Klebsiella pneumoniae it was 1 µg/mL (≈ 1.78 µM); in the data set with Staphylococcus aureus [1] it was 8 µg/mL (≈ 14.2 µM); in the data set with Escherichia coli [2] it was 16 µg/mL (≈ 28.5 µM); with Staphylococcus aureus [3], 128 µg/mL (≈ 228 µM); with Staphylococcus aureus [4], 64 µg/mL (≈ 114 µM). Moreover, the MIC came out at 128 µg/mL (≈ 228 µM) in the data set on Acinetobacter baumannii; 128 µg/mL (≈ 228 µM) in the data set with Escherichia coli [5]; 64 µg/mL (≈ 114 µM) with Pseudomonas aeruginosa [6]; 32 µg/mL (≈ 57 µM) in the data set on Pseudomonas aeruginosa [7]; 128 µg/mL (≈ 228 µM) in the data set on Staphylococcus aureus [8]. In data set [9], the concentration for 50% haemolysis (HC50) at 1 h was determined as 234 µg/mL.
As for `CO/N=C(\C(=O)N1CCN(c2ccc3c4c(cccc24)C(=O)N(c2nc4ccccc4s2)C3=O)CC1)c1csc(N)n1`, the MIC with Enterococcus faecium is 64 µg/mL (≈ 107 µM); with Klebsiella pneumoniae it was 16 µg/mL (≈ 26.8 µM); in the data set with Staphylococcus aureus [1], 16 µg/mL (≈ 26.8 µM); with Escherichia coli [2], 16 µg/mL (≈ 26.8 µM); in the data set on Staphylococcus aureus [3] it was 128 µg/mL (≈ 214 µM); with Staphylococcus aureus [4], 128 µg/mL (≈ 214 µM). The MIC in the data set on Acinetobacter baumannii was determined as 128 µg/mL (≈ 214 µM); in the data set with Escherichia coli [5] it was 64 µg/mL (≈ 107 µM); in the data set on Pseudomonas aeruginosa [6], 64 µg/mL (≈ 107 µM); in the data set with Pseudomonas aeruginosa [7] it was 32 µg/mL (≈ 53.5 µM); in the data set on Staphylococcus aureus [8], 128 µg/mL (≈ 214 µM). In addition, the HC50 at 1 h in data set [9] turned out to be 334 µg/mL.
As to `CO/N=C(\C(=O)N1CCN(c2ccc3c4c(cccc24)C(=O)N(CC(=O)O)C3=O)CC1)c1csc(N)n1`, the MIC with Enterococcus faecium was 64 µg/mL (≈ 122 µM); in the data set with Klebsiella pneumoniae, 128 µg/mL (≈ 245 µM); in the data set on Staphylococcus aureus [1], 64 µg/mL (≈ 122 µM); in the data set on Escherichia coli [2] it was 64 µg/mL (≈ 122 µM); in the data set on Staphylococcus aureus [3], 128 µg/mL (≈ 245 µM); in the data set with Staphylococcus aureus [4], 64 µg/mL (≈ 122 µM). The MIC with Acinetobacter baumannii is 32 µg/mL (≈ 61.2 µM); in the data set on Escherichia coli [5], 32 µg/mL (≈ 61.2 µM); with Pseudomonas aeruginosa [6], 16 µg/mL (≈ 30.6 µM); in the data set on Pseudomonas aeruginosa [7], 64 µg/mL (≈ 122 µM); in the data set on Staphylococcus aureus [8], 256 µg/mL (≈ 490 µM). Besides, in data set [9], the concentration for 50% haemolysis (HC50) at 1 h amounted to 1000 µg/mL.
For `CO/N=C(\C(=O)N1CCN(c2ccc3c4c(cccc24)C(=O)N(C(CO)CO)C3=O)CC1)c1csc(N)n1`, the minimum inhibitory concentration (MIC) was found to be 64 µg/mL (≈ 119 µM) with Enterococcus faecium; 128 µg/mL (≈ 238 µM) in the data set with Klebsiella pneumoniae; 4 µg/mL (≈ 7.43 µM) in the data set with Staphylococcus aureus [1]; 64 µg/mL (≈ 119 µM) in the data set on Escherichia coli [2]; 16 µg/mL (≈ 29.7 µM) with Staphylococcus aureus [3]; 32 µg/mL (≈ 59.4 µM) with Staphylococcus aureus [4]. The MIC in the data set with Acinetobacter baumannii is 32 µg/mL (≈ 59.4 µM); in the data set with Escherichia coli [5] it was 4 µg/mL (≈ 7.43 µM); in the data set on Pseudomonas aeruginosa [6] it was 32 µg/mL (≈ 59.4 µM); in the data set on Pseudomonas aeruginosa [7], 32 µg/mL (≈ 59.4 µM); in the data set with Staphylococcus aureus [8], 64 µg/mL (≈ 119 µM). Besides, the concentration for 50% haemolysis (HC50) at 1 h in [9] is 232 µg/mL.

What is called MIC is the lowest concentration that inhibits growth of the organism. For orientation: HC50 means the concentration giving 50% haemolysis.
